The test system of one test is NEP. The experiment in a line: Modulation of NEP activity, FRET substrate Abz-RGFK(Dnp)-OH. It is filed as biochemical, human. The settings on record: 10 µM peptide, 1.5 ng NEP, Abz-RGFK(Dnp)-OH (3.5 µM in method, 10 µM in table note), Tris HCl 50 mM, pH 7.5, 37 °C, 15 min, fluorescence 320/420 nm, triplicate. As for the experimental part: The results were obtained by incubating the enzymes with their FRET substrates (10 µM) in a final volume of 100 µL. For the ACE assays, the used buffer was Tris HCl 100 mM, NaCl 50 mM and ZnCl2 10 µM, pH 7.0. For NEP, the assays were made in Tris HCl 50 mM, pH 7.5 buffer. All reactions occurred at 37 °C, in a Victor 3 fluorimeter (Perkin–Elmer) adjusted for excitation and emission readings at 320 and 420 nm, respectively, for 15 min (one reader per minute). Results were obtained in triplicate and analyzed on GraFit 5 software.
For ACE assays, 10 µM of each peptide was incubated with 3.0 ng of peptidase and 10 µM of Abz-FRK (Dnp) P-OH substrate, in Tris HCl 100 mM, NaCl 50 mM and ZnCl2 10 µM, pH 7.0 buffer. For NEP, 10 µM of TsHpt-I or -II was incubated with 1.5 ng of peptidase, 3.5 µM Abz-RGFK (Dnp)-OH in Tris HCl 50 mM, pH 7.5 buffer. All reactions occurred at 37 °C, in a final volume of 100 µL, in a Victor 3 fluorimeter (Perkin–Elmer, Waltham, MA, USA) adjusted for excitation and emission readings at 320 and 420 nm, respectively, for 15 min (one reader per minute). Results were obtained in triplicate and analyzed using GraFit 5 (Erithacus software, East Grinstead, West Sussex, UK).

The test system of test [1] is murine peritoneal macrophages. The experiment in a line: Phagocytic activity of murine peritoneal macrophages (Saccharomyces cerevisiae). It counts as cell-based, BALB/c mice. The settings on record: 100 µg/mL, 24 h, then 1 h with Saccharomyces cerevisiae; duplicate; versus negative control. As for the experimental part:
Figure 5 Phagocytic activity of the murine peritoneal macrophages stimulated in vitro with TsHpt-I and -II. Peritoneal exudate macrophages from naïve BALB/c mice were cultured on glass coverslips for 24 h in culture medium or in the presence of LPS (5 μg/mL) or TsHpt-I and -II (100 μg/mL). After this period, the cells were incubated for 1 h with a suspension of Saccharomyces cerevisiae. Coverslips were washed, fixed and stained by Giemsa. (A) Phagocytosis images in 400× magnification. (B) The phagocytic index was calculated based on the percentage of phagocytic cells and on the average number of yeasts per cell, by counting approximately 200 cells per coverslip in 1000× magnification. The results represent one of two reproducible experiments performed in duplicate (mean ± SD). * p < 0.05.
Peritoneal macrophages from naïve BALB/c mice (n = 6) were obtained as described above (item 5.5.1). Cells were distributed in 24-well culture plates (5 × 10^5 cells/500 µL/well), with glass coverslips inside, and incubated for 2 h at 37 °C and 5% CO2. […] Phagocytosis was evaluated by immersion optical microscopy (1000×) and quantified by counting approximately 200 cells per cover slip. The percentage of phagocytic cells and the average number of internalized yeasts per phagocytic cell were calculated. […]

The test system of test [2] is murine peritoneal macrophages. The experiment in a line: Cytokine production by murine peritoneal macrophages, CBA method. It is filed as cell-based, BALB/c mice. The settings on record: 24 h; for release of IL-10, IL-12p70, IFN-γ and MCP-1: 10, 50 and 100 µg/mL, data not shown. As for the experimental part: Figure 4 Cytokine production by murine peritoneal macrophages stimulated in vitro with TsHpt-I and -II. Peritoneal exudate macrophages from naïve BALB/c mice were cultured for 24 h in the presence of TsHpt-I (A,C) and -II (B,D), at concentrations of 10 µg/mL, 50 µg/mL and 100 µg/mL. Cells cultured with medium alone or in the presence of 5 µg/mL LPS were used as negative and positive controls, respectively. The concentrations of TNF (A,B) and IL-6 (C,D) were determined by the CBA method, according to the manufacturer’s instructions. The results represent the mean ± SD of three independent experiments performed in triplicate. * p < 0.05.
Peritoneal exudate cells (BALB/c naïve mice, n = 6) were collected by two washes with 5 mL of RPMI medium. The cells obtained were washed twice with RMPI medium, at 400 g, for 10 min, at 18 °C, and resuspended in R10 medium (RPMI + 10% fetal cow serum). After counting in a Neubauer chamber, in the presence of Trypan blue, the cell concentration was adjusted to 2 × 10^6 cells/mL. Cells were distributed into 96-well culture plates (2 × 10^5 cells/100 µL/well) and incubated for 2 h at 37 °C and 5% CO2. After incubation, non-adherent cells were discarded, and adherent cells (macrophages) were resuspended in R10 medium containing the respective tested stimuli, at different concentrations, in triplicates, in a final volume of 200 µL/well. Cells resuspended in R10 medium were used as a negative control, and cells stimulated with LPS (5 µg/mL) as a positive control. Cells were then incubated for 24 h at 37 °C and 5% CO2. After this period, the culture supernatants were collected and stored at −80 °C, for subsequent dosage of cytokines, and cell viability was determined by MTT assay.
The concentration of pro- and anti-inflammatory cytokines (IL-6, IL-10, IL-12p70, […], MCP-1 and TNF) in the samples incubated with both hypotensins (10 µg/mL, 50 µg/mL and 100 µg/mL) was determined by the CBA method (BD Cytometric Bead Array Mouse Inflammation Kit), according to the manufacturer’s instructions. The samples were acquired in a BD FACSCanto II flow cytometer, and the data were analyzed using BD FCAP Array version 3.0 software.

Where [3] appears, read: 100 µg/mL, three independent experiments in triplicate.

No end group written: not given here.

For the sequence AEIDFSGIPEDIIKEIKETNAKPPA [TsHpt-II], in the test with NEP, the “NEP Inhibition (%)” value stood at 11%. Moreover, the phagocytic index result in test [1] is on record as “significant increase in the phagocytic index”. In test [2] (setting [3]), the “release of IL-6” value is listed as “induced the release of IL-6” and the “release of TNF” value was “release of significant levels of TNF”. Moreover, in test [2], the “release of IL-10, IL-12p70, IFN-γ and MCP-1” value is given as “None of the peptides were able to induce the release”.
Consider AEIDFSGIPEDIIKQIKETNAKPPA [TsHpt-I], for which the “NEP Inhibition (%)” value in the test on NEP is recorded as 75%. Also, in test [1], the phagocytic index entry is recorded as “significant increase in the phagocytic index”. The “release of TNF” value in test [2] (setting [3]) is “release of significant levels of TNF”. Also, the “release of IL-10, IL-12p70, IFN-γ and MCP-1” value in test [2] is on record as “None of the peptides were able to induce the release”.

The values above are taken from publication PMC8704389, “New Insights into the Hypotensins from Tityus serrulatus Venom: Pro-Inflammatory and Vasopeptidases Modulation Activities” (Toxins, 2021).
